In PubChem BioAssay (NCI):
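Step 1: Grow cells in 96-well plates. Step 2: Expose to compound for 48 hours at 5 concentrations. Step 3: Interpolate endpoints linearly; if unreached, use highest concentration. TGI is the concentration that stops growth completely.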

Each molecule was assayed on P388/ADR leukemia (assay: NCI tumour cell line growth inhibition, 48 h).

| Compound | TGI [µM] |
| --- | --- |
| C=C1C(=O)C[C@@]23CCC[C@@]12CC(OCOC)C3 (some centres not stated) | 2.09 |
| CCN(CC)CCCNc1ncc(C)c2[nH]c3ccncc3c12 | > 100 |
| COC(=O)c1cccc(N[C@@H]2c3cc4c(cc3C(c3cc(OC)c(O)c(OC)c3)[C@H]3C(=O)OCC32)OCO4)c1 (some centres not stated) | 1.58 |
| S=P1(N2CCCCC2)Oc2ccc3ccccc3c2-c2c(ccc3ccccc23)O1 | > 100 |

These molecules were tested on RXF-631 renal (assay: NCI tumour cell line growth inhibition, 48 h).

| Compound | TGI [µM] |
| --- | --- |
| CC(C)CCC[C@@H](C)C1CCC2[C@@H]3CC=C4C[C@@H](C(=O)NCC[N+](C)(C)CCCS(=O)(=O)[O-])CC[C@]4(C)C3CC[C@@]21C (some centres not stated) | 34.6 |
| CS(=O)(=O)c1c(N)c2nc(Cl)cn2c2nc3ccccc3nc12 | > 100 |
| CC(C)(C)NC(=O)NC12CC3CC(CC(F)(C3)C1)C2 | > 100 |
